This experiment deals with BDF1 mice, Adenocarcinoma 755 s.c., tumor weight T/C. Kind of experiment: NCI In Vivo Anticancer Drug Screen. Data for tumor model Adenocarcinoma 755 (subcutaneous) in B6D2F1 (BDF1) mice. The settings on record: endpoint: mean tumor weight, higher = larger tumour. In outline:
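Values express treated (T) relative to vehicle-dosed control (C) animals, based on survival or tumour size measured after compound treatment of mice bearing a transplanted tumour.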

The mark [1] stands for this setting: dose: 12.5 mg/kg/injection, schedule: Q01DX011 (ip), vehicle: methylcellulose (MC).
Setting [2] is: dose: 25.0 mg/kg/injection, schedule: Q01DX011 (ip), vehicle: methylcellulose (MC).
Where [3] appears, read: dose: 30.0 mg/kg/injection, schedule: Q01DX011 (ip), vehicle: saline.
[4] abbreviates: dose: 5.0 mg/kg/injection, schedule: Q01DX011 (ip), vehicle: carboxymethylcellulose (CMC).
The mark [5] stands for this setting: dose: 60.0 mg/kg/injection, schedule: Q01DX011 (ip), vehicle: saline.
Setting [6] is: dose: 120.0 mg/kg/injection, schedule: Q01DX011 (ip), vehicle: saline.
Setting [7] is: dose: 240.0 mg/kg/injection, schedule: Q01DX011 (ip), vehicle: saline.

SMILES strings stand for the structures. Values joined by “and” are separate entries in the source; they are usually repeats but may differ in a detail not shown here. Identical values can stand only once.

The T/C is the result in the treated group divided by that in the control group, in per cent.

For the compound `O=c1[nH]cc(F)c(=O)[nH]1`, the T/C (dose: 3.38 mg/kg/injection, schedule: Q01DX011 (ip), vehicle: carboxymethylcellulose (CMC)) is 106 % of control; the T/C (dose: 3.87 mg/kg/injection, schedule: Q01DX011 (ip), vehicle: carboxymethylcellulose (CMC)) was 61 % of control; the T/C (dose: 4.13 mg/kg/injection, schedule: Q01DX011 (ip), vehicle: carboxymethylcellulose (CMC)) is 48 % of control and 71 % of control; the T/C (dose: 6.25 mg/kg/injection, schedule: Q01DX011 (ip), vehicle: methylcellulose (MC)) is 91 % of control; the T/C (dose: 6.75 mg/kg/injection, schedule: Q01DX011 (ip), vehicle: carboxymethylcellulose (CMC)) was 75 % of control; the T/C (dose: 7.75 mg/kg/injection, schedule: Q01DX011 (ip), vehicle: carboxymethylcellulose (CMC)) is 103 % of control and 85 % of control. Further, the T/C is 151 % of control and 159 % of control (dose: 8.27 mg/kg/injection, schedule: Q01DX011 (ip), vehicle: carboxymethylcellulose (CMC)); 156 % of control (dose: 10.8 mg/kg/injection, schedule: Q01DX011 (ip), vehicle: carboxymethylcellulose (CMC)); 44 % of control under setting [1]; 76 % of control (dose: 13.24 mg/kg/injection, schedule: Q01DX011 (ip), vehicle: carboxymethylcellulose (CMC)); 100 % of control and 224 % of control and 75 % of control (dose: 16.55 mg/kg/injection, schedule: Q01DX011 (ip), vehicle: carboxymethylcellulose (CMC)); 108 % of control (dose: 18.0 mg/kg/injection, schedule: Q01DX011 (ip), vehicle: carboxymethylcellulose (CMC)). The T/C is, setting by setting: (dose: 20.0 mg/kg/injection, schedule: Q01DX011 (ip), vehicle: saline) 15 % of control; (dose: 22.06 mg/kg/injection, schedule: Q01DX011 (ip), vehicle: carboxymethylcellulose (CMC)) 59 % of control; under setting [2], 13 % of control; (dose: 25.0 mg/kg/injection, schedule: Q01DX011 (ip), vehicle: saline) 34 % of control; (dose: 27.0 mg/kg/injection, schedule: Q01DX011 (ip), vehicle: carboxymethylcellulose (CMC)) 18 % of control and 27 % of control; under setting [3], 11 % of control. Moreover, the T/C (dose: 33.1 mg/kg/injection, schedule: Q01DX011 (ip), vehicle: carboxymethylcellulose (CMC)) was 27 % of control.
For the compound `Cc1ccc(N2CCN(CCCN3CCN(c4ccc(Cl)cc4)CC3)CC2)cc1`, the T/C by setting is: (dose: 0.05 mg/kg/injection, schedule: Q01DX011 (ip), vehicle: carboxymethylcellulose (CMC)) 100 % of control; (dose: 0.09 mg/kg/injection, schedule: Q01DX011 (ip), vehicle: carboxymethylcellulose (CMC)) 66 % of control; (dose: 0.18 mg/kg/injection, schedule: Q01DX011 (ip), vehicle: carboxymethylcellulose (CMC)) 116 % of control; (dose: 0.37 mg/kg/injection, schedule: Q01DX011 (ip), vehicle: carboxymethylcellulose (CMC)) 104 % of control; (dose: 0.75 mg/kg/injection, schedule: Q01DX011 (ip), vehicle: methylcellulose (MC)) 38 % of control; (dose: 1.5 mg/kg/injection, schedule: Q01DX011 (ip), vehicle: methylcellulose (MC)) 37 % of control. Further, the T/C was 76 % of control under setting [1]; 48 % of control under setting [2]; 42 % of control and 46 % of control (dose: 50.0 mg/kg/injection, schedule: Q01DX011 (ip), vehicle: methylcellulose (MC)).
On to `NC(=O)c1ccc(NC(=O)CCC(=O)Nc2ccc(C(N)=O)cn2)nc1`, for which the T/C runs as follows: (dose: 0.25 mg/kg/injection, schedule: Q01DX011 (ip), vehicle: carboxymethylcellulose (CMC)) 83 % of control; (dose: 0.5 mg/kg/injection, schedule: Q01DX011 (ip), vehicle: carboxymethylcellulose (CMC)) 93 % of control; (dose: 1.0 mg/kg/injection, schedule: Q01DX011 (ip), vehicle: carboxymethylcellulose (CMC)) 80 % of control; (dose: 2.0 mg/kg/injection, schedule: Q01DX011 (ip), vehicle: carboxymethylcellulose (CMC)) 33 % of control; (dose: 2.5 mg/kg/injection, schedule: Q01DX011 (ip), vehicle: carboxymethylcellulose (CMC)) 16 % of control; under setting [4], 7 % of control.
Consider `O=C1N(Cl)C(=O)C(c2ccc(Cl)cc2)(c2ccc(Cl)cc2)N1Cl`, for which the T/C (dose: 7.5 mg/kg/injection, schedule: Q#A X022 (ip), vehicle: saline) was 161 % of control; the T/C (dose: 15.0 mg/kg/injection, schedule: Q01DX011 (ip), vehicle: saline) was 100 % of control; the T/C (dose: 15.0 mg/kg/injection, schedule: Q#A X022 (ip), vehicle: saline) was 107 % of control; the T/C under setting [3] was 52 % of control; the T/C (dose: 30.0 mg/kg/injection, schedule: Q#A X022 (ip), vehicle: saline) was 67 % of control; the T/C (dose: 45.0 mg/kg/injection, schedule: Q03DX004 (ip), vehicle: saline) is 73 % of control. Besides, the T/C is 62 % of control under setting [5]; 28 % of control (dose: 60.0 mg/kg/injection, schedule: Q#A X022 (ip), vehicle: saline); 78 % of control (dose: 90.0 mg/kg/injection, schedule: Q03DX004 (ip), vehicle: saline); 23 % of control and 28 % of control under setting [6]; 61 % of control (dose: 180.0 mg/kg/injection, schedule: Q03DX004 (ip), vehicle: saline); 15 % of control under setting [7]. For the same compound, the T/C (dose: 360.0 mg/kg/injection, schedule: Q03DX004 (ip), vehicle: saline) was 36 % of control and the T/C (dose: 480.0 mg/kg/injection, schedule: Q01DX011 (ip), vehicle: saline) is 16 % of control.
For `CC(C)CN(C)/N=N/c1nc[nH]c1C(N)=O`, the T/C runs as follows: (dose: 25.0 mg/kg/injection, schedule: Q01DX011 (ip), vehicle: carboxymethylcellulose (CMC)) 40 % of control; (dose: 37.5 mg/kg/injection, schedule: Q01DX011 (ip), vehicle: carboxymethylcellulose (CMC)) 22 % of control.
On to `O=C(O)c1cc2ccccc2c2cccc([N+](=O)[O-])c12`, for which the T/C by setting is: (dose: 1.75 mg/kg/injection, schedule: Q01DX011 (ip), vehicle: carboxymethylcellulose (CMC)) 63 % of control; (dose: 3.5 mg/kg/injection, schedule: Q01DX011 (ip), vehicle: carboxymethylcellulose (CMC)) 89 % of control; (dose: 7.0 mg/kg/injection, schedule: Q01DX011 (ip), vehicle: carboxymethylcellulose (CMC)) 59 % of control.
For the compound `CCn1cnc2c(SC(C)C)ncnc21`, the T/C by setting is: (dose: 16.0 mg/kg/injection, schedule: Q01DX011 (ip), vehicle: carboxymethylcellulose (CMC)) 42 % of control; (dose: 31.0 mg/kg/injection, schedule: Q01DX011 (ip), vehicle: carboxymethylcellulose (CMC)) 4 % of control.
Consider `CCOC1CCCC(n2cnc3c(=S)nc[nH]c32)O1` (stereo not given), for which the T/C is 29 % of control (dose: 4.69 mg/kg/injection, schedule: Q01DX011 (ip), vehicle: methylcellulose (MC)) and 2 % of control (dose: 9.38 mg/kg/injection, schedule: Q01DX011 (ip), vehicle: methylcellulose (MC)).
On to `CC(=O)OCC1OC(n2cnc3c(=O)[nH]c(=O)[nH]c32)C(OC(C)=O)C1OC(C)=O` (stereo not given), for which the T/C was 101 % of control under setting [3], 103 % of control under setting [5], 86 % of control under setting [6] and 112 % of control under setting [7].
In the case of `CC(C)(COS(C)(=O)=O)C(=O)N1CCN(C(=O)C(C)(C)COS(C)(=O)=O)CC1`, the T/C is 162 % of control (dose: 2.4 mg/kg/injection, schedule: Q01DX011 (ip), vehicle: carboxymethylcellulose (CMC)); 82 % of control (dose: 4.7 mg/kg/injection, schedule: Q01DX011 (ip), vehicle: carboxymethylcellulose (CMC)); 60 % of control (dose: 9.4 mg/kg/injection, schedule: Q01DX011 (ip), vehicle: carboxymethylcellulose (CMC)); 57 % of control (dose: 18.8 mg/kg/injection, schedule: Q01DX011 (ip), vehicle: carboxymethylcellulose (CMC)).
Turning to `Cc1ccc(S(=O)(=O)OCC2OC(n3cnc4c(=O)[nH]c(N)nc43)C(O)C2O)cc1` (stereo not given), the T/C is 108 % of control under setting [4]; 97 % of control (dose: 30.0 mg/kg/injection, schedule: Q01DX011 (ip), vehicle: carboxymethylcellulose (CMC)); 100 % of control (dose: 60.0 mg/kg/injection, schedule: Q01DX011 (ip), vehicle: carboxymethylcellulose (CMC)); 98 % of control (dose: 120.0 mg/kg/injection, schedule: Q01DX011 (ip), vehicle: carboxymethylcellulose (CMC)); 62 % of control (dose: 240.0 mg/kg/injection, schedule: Q01DX011 (ip), vehicle: carboxymethylcellulose (CMC)).

Values taken from PubChem BioAssay AID180 (DTP/NCI, 2004).
